# System: human maximum recommended daily dose, FDA database
# Assay: DSSTox (FDAMDD) FDA Maximum (Recommended) Daily Dose Database
# Conditions: stronger effect = lower value
# Excerpt: The Food and Drug Administration (FDA) Center for Drug Evaluation and Research, Office of Pharmaceutical Science, Informatics and Computational Safety Analysis Staff's Maximum Recommended Daily Dose (FDAMDD) database contains values for over 1200 pharmaceuticals listed in Martindale: The Extra Pharmacopoeia (1973, 1983, and 1993) and The Physicians' Desk Reference (1995 and 1999). Some classes of chemicals were excluded from the FDAMDD database due to their unsuitability for most QSAR modeling programs. These were inorganic chemicals, high molecular weight polymers (>5000 Daltons), fibers, salts, mixtures of organic chemicals, and small molecules (<100 Daltons). FDAMDD is the non-proprietary portion of the database that was used in the QSAR analysis reported in the Main Citation. DSSTox FDAMDD has fewer substance records than the original MRDD Source database due to consolidation of partial structures (i.e., complexed entities) into a single record and elimination of duplicate entries. DSSTox FDAMDD also differs from the MRDD Source database in presenting complete structural information pertaining to the actual salt or complexed form corresponding to the listed ChemicalName and CASRN. According to the Source authors, there are a number of cases where multiple related forms or derivatives of a drug were listed as separate records but were assumed to fall under the same clinical toxicity assessment and, therefore, assigned the same Dose_MRDD_mg activity value. For the DSSTox FDAMDD, we have labeled these derivatives in the ChemClass_MRDD_grouping field and provide their counts in the ChemicalReplicateCount field to highlight their special nature.
# Maximum recommended daily dose (or maximum recommended therapeutic dose) values were determined from pharmaceutical clinical trials that employed an oral route of exposure and daily treatments, usually for 3-12 months. Drugs were given as single or divided dose treatment regimens to achieve desired pharmacological effects. Roughly 5% of the pharmaceuticals in the FDAMDD data file were antineoplastics and anesthetics and were administered intravenously and/or intramuscularly. When separate MRDDs were reported for different routes of exposure, only the oral MRDD was included in the data file and only MRDD values reported for the average adult patient were used. Pharmaceuticals that are administered orally are usually tested over a limited range of doses and have MRDDs reported as mg/day. The mg/day unit was converted to mg/kg-body weight (bw)/day based upon an average adult weighing 60 kg. In contrast, the dose unit for most antineoplastic drug MRDDs is reported as mg/m2 which was converted to mg/kg-bw/day using the formula mg/kg-bw/day = mg/m2/37 for an average adult. Additionally, a few drugs had MRDDs reported in parts per million (ppm) which were converted to mg/kg-bw/day on the basis that 1000 ppm equals 25 mg/kg-bw/day for an average 60 kg adult. Activity Score is mapping of LOG10(1/Dose_MRDD_mmol) spanning activity range [MIN, MAX] onto Integer 1-100 Activity range, where 100 is highest potency and 1 is lowest potency: ActivityScore = 100 * INTEGER[(LOGINV_MRDD_mmol - MIN)/(MAX […] MIN)]. Activity Outcome is "active" for all substances, since Dose_MRDD_mmol is reported for all substances.
# [1] = TherapeuticCategory: cardiotonic
# [2] = TherapeuticCategory: antihistaminic
# [3] = TherapeuticCategory: antiemetic
# [4] = TherapeuticCategory: antibacterial
# [5] = TherapeuticCategory: antipsychotic
# [6] = TherapeuticCategory: antihypertensive
structure (smiles),measurement,setting,value
CC(=O)O[C@H]1C[C@H](O[C@H]2[C@@H](O)C[C@H](O[C@H]3[C@@H](O)C[C@H](O[C@H]4CC[C@@]5(C)[C@H](CC[C@@H]6[C@@H]5C[C@@H](O)[C@]5(C)[C@@H](C7=CC(=O)OC7)CC[C@]65O)C4)O[C@@H]3C)O[C@@H]2C)O[C@H](C)[C@H]1O[C@@H]1O[C@H](CO)[C@@H](O)[C@H](O)[C@H]1O,maximum recommended daily dose (mmol/kg-bw/day),[1],3.38e-05
CN(C)CCOC(c1ccccc1)c1ccccc1,maximum recommended daily dose (mmol/kg-bw/day),[2],0.00326
CCCCCCC(C)(C)c1cc(O)c2c(c1)OC(C)(C)[C@@H]1CCC(=O)C[C@@H]21,maximum recommended daily dose (mmol/kg-bw/day),[3],0.000268
C[C@@H](Cc1ccccc1)N(C)Cc1ccccc1,maximum recommended daily dose (mmol/kg-bw/day),TherapeuticCategory: anorexic,0.0104
CO/N=C(\C(=O)N[C@@H]1C(=O)N2C(C(=O)O)=C(CSc3nc(=O)c(=O)[nH]n3C)CS[C@H]12)c1csc(N)n1,maximum recommended daily dose (mmol/kg-bw/day),[4],0.12
CO[C@H]1C[C@@H]2CC[C@@H](C)[C@@](O)(O2)C(=O)C(=O)N2CCCC[C@H]2C(=O)O[C@H]([C@H](C)C[C@@H]2CC[C@@H](O)[C@H](OC)C2)CC(=O)[C@H](C)/C=C(\C)[C@@H](O)[C@@H](OC)C(=O)[C@H](C)C[C@H](C)/C=C/C=C/C=C/1C,maximum recommended daily dose (mmol/kg-bw/day),TherapeuticCategory: immunosuppressant,0.000148
CNCCc1ccc(OC(=O)C(C)C)c(OC(=O)C(C)C)c1,maximum recommended daily dose (mmol/kg-bw/day),[1],0.0325
CC(=O)O[C@H]1C[C@H](O[C@H]2[C@@H](O)C[C@H](O[C@H]3[C@@H](O)C[C@H](OC4CC[C@@]5(C)[C@H](CC[C@@H]6[C@@H]5CC[C@]5(C)[C@@H](C7=CC(=O)OC7)CC[C@]65O)C4)O[C@@H]3C)O[C@@H]2C)O[C@H](C)[C@H]1O[C@@H]1O[C@H](CO)[C@@H](O)[C@H](O)[C@H]1O (stereo partly specified),maximum recommended daily dose (mmol/kg-bw/day),[1],3.44e-05
CN1CCc2cccc3c2[C@H]1Cc1ccc(O)c(O)c1-3,maximum recommended daily dose (mmol/kg-bw/day),TherapeuticCategory: emetic,0.00625
CCOc1ccc(Cc2nccc3cc(OCC)c(OCC)cc23)cc1OCC,maximum recommended daily dose (mmol/kg-bw/day),TherapeuticCategory: antispasmodic,0.0253
N[C@@H](CCC(=O)N[C@@H](CS)C(=O)NCC(=O)O)C(=O)O,maximum recommended daily dose (mmol/kg-bw/day),TherapeuticCategory: none,0.0163
CCOC(=O)CCC(=O)O[C@H]1[C@H](O[C@@H]2[C@@H](C)[C@H](O[C@H]3C[C@@](C)(OC)[C@@H](O)[C@H](C)O3)[C@@H](C)C(=O)O[C@H](CC)[C@@](C)(O)[C@H](O)[C@@H](C)C(=O)[C@H](C)C[C@@]2(C)O)O[C@H](C)C[C@@H]1N(C)C,maximum recommended daily dose (mmol/kg-bw/day),[4],0.0774
CN(C)C(=O)Oc1cccc([N+](C)(C)C)c1,maximum recommended daily dose (mmol/kg-bw/day),TherapeuticCategory: cholinergic,0.028
CCCCNC(=O)NS(=O)(=O)c1ccc(C)cc1,maximum recommended daily dose (mmol/kg-bw/day),TherapeuticCategory: hypoglycemic agent,0.123
CCCCN(CCCC)CCNc1nc(-c2ccccc2)no1,maximum recommended daily dose (mmol/kg-bw/day),TherapeuticCategory: peripheral vasodilator,0.0126
CO/N=C(/C(=O)N[C@@H]1C(=O)N2C(C(=O)O)=C(COC(N)=O)CS[C@H]12)c1ccco1,maximum recommended daily dose (mmol/kg-bw/day),[4],0.0394
CCCc1c2oc(C(=O)O)cc(=O)c2cc2c(=O)cc(C(=O)O)n(CC)c12,maximum recommended daily dose (mmol/kg-bw/day),"TherapeuticCategory: antiallergic, antiasthmatic",0.000627
CC1(C)S[C@@H]2[C@H](N=CN3CCCCCC3)C(=O)N2[C@H]1C(=O)O,maximum recommended daily dose (mmol/kg-bw/day),[4],0.0461
Cc1c(OCC(F)(F)F)ccnc1CS(=O)c1nc2ccccc2[nH]1 (stereo unspecified),maximum recommended daily dose (mmol/kg-bw/day),"TherapeuticCategory: antiulcerative, anti infective",0.00135
CCN1CCCC1CNC(=O)c1cc(S(=O)(=O)CC)ccc1OC (stereo unspecified),maximum recommended daily dose (mmol/kg-bw/day),TherapeuticCategory: antidepressant,0.0564
OC[C@H]1O[C@@H](n2cnc3c2NC=NC[C@H]3O)C[C@@H]1O,maximum recommended daily dose (mmol/kg-bw/day),TherapeuticCategory: antineoplastic,0.000249
O=[N+]([O-])O[C@@H]1CO[C@H]2[C@@H]1OC[C@@H]2O,maximum recommended daily dose (mmol/kg-bw/day),TherapeuticCategory: antianginal,0.0105
NC12CC3CC(CC(C3)C1)C2,maximum recommended daily dose (mmol/kg-bw/day),"TherapeuticCategory: antiviral, antiparkinsonian",0.0441
O=C(CCCN1CCC(O)(c2ccc(Br)cc2)CC1)c1ccc(F)cc1,maximum recommended daily dose (mmol/kg-bw/day),[5],0.00198
Cc1ncc2n1-c1ccc(Cl)cc1C(c1ccccc1F)=NC2,maximum recommended daily dose (mmol/kg-bw/day),TherapeuticCategory: anesthetic,0.000256
O=C(O)CCC(=O)c1ccc(-c2ccccc2)cc1,maximum recommended daily dose (mmol/kg-bw/day),TherapeuticCategory: anti inflammatory,0.059
CCCCC[C@H](O)/C=C/[C@H]1[C@H](O)CC(=O)[C@@H]1CCCCCCC(=O)O,maximum recommended daily dose (mmol/kg-bw/day),TherapeuticCategory: vasodilator,2.82e-07
CC(C)(N)Cc1ccccc1,maximum recommended daily dose (mmol/kg-bw/day),TherapeuticCategory: anorexic,0.00419
C[N+](C)(C)C[C@H](O)CC(=O)[O-],maximum recommended daily dose (mmol/kg-bw/day),TherapeuticCategory: antihyperlipoproteinemic,0.307
C[C@@H]1O[C@@]2(CS1)CN1CCC2CC1,maximum recommended daily dose (mmol/kg-bw/day),TherapeuticCategory: selective agonist (tear and salivary production),0.00613
CCCCNc1cc(C(=O)O)cc(S(N)(=O)=O)c1Oc1ccccc1,maximum recommended daily dose (mmol/kg-bw/day),TherapeuticCategory: diuretic,0.000458
CN[C@@H](C)[C@H](O)c1ccccc1,maximum recommended daily dose (mmol/kg-bw/day),TherapeuticCategory: bronchodilator,0.0101
COc1ccc(CN(CCN(C)C)c2ccccn2)cc1,maximum recommended daily dose (mmol/kg-bw/day),[2],0.00438
O=C(O)CCC(=O)O,maximum recommended daily dose (mmol/kg-bw/day),TherapeuticCategory: antiulcerative,0.847
COC1=CC(=O)C[C@@H](C)[C@]12Oc1c(Cl)c(OC)cc(OC)c1C2=O,maximum recommended daily dose (mmol/kg-bw/day),TherapeuticCategory: antifungal,0.0354
COc1cc2nc(N3CCN(C(=O)C4COc5ccccc5O4)CC3)nc(N)c2cc1OC (stereo unspecified),maximum recommended daily dose (mmol/kg-bw/day),[6],0.000591
NC(=O)c1cc[n+](CC2=C(C(=O)[O-])N3C(=O)[C@@H](NC(=O)C(c4ccccc4)S(=O)(=O)O)[C@H]3SC2)cc1 (stereo partly specified),maximum recommended daily dose (mmol/kg-bw/day),[4],0.188
OC[C@@H](O)[C@H]1O[C@@H]2O[C@H](C(Cl)(Cl)Cl)O[C@@H]2[C@H]1O,maximum recommended daily dose (mmol/kg-bw/day),"TherapeuticCategory: sedative, hypnotic",0.0269
CCOC(=O)[C@H](CCc1ccccc1)N[C@@H](C)C(=O)N1Cc2ccccc2C[C@H]1C(=O)O,maximum recommended daily dose (mmol/kg-bw/day),"TherapeuticCategory: antihypertensive, ACE inhibitor",0.00303
CC[C@@H](CO)NC(=O)[C@@H]1C=C2c3cccc4[nH]cc(c34)C[C@H]2N(C)C1,maximum recommended daily dose (mmol/kg-bw/day),TherapeuticCategory: oxytocic,3.92e-05
C#C[C@]1(O)CC[C@H]2[C@@H]3CCc4cc(OC)ccc4[C@H]3CC[C@@]21C,maximum recommended daily dose (mmol/kg-bw/day),TherapeuticCategory: estrogen,2.67e-06
NC(=O)OCC(O)COc1ccc(Cl)cc1 (stereo unspecified),maximum recommended daily dose (mmol/kg-bw/day),TherapeuticCategory: topical antifungal,0.163
Nc1ncnc2c1ncn2[C@@H]1O[C@H](COP(=O)(O)O)[C@@H](O)[C@H]1O,maximum recommended daily dose (mmol/kg-bw/day),TherapeuticCategory: antiarrhythmic,0.000959
COCCc1ccc(OCC(O)CNC(C)C)cc1 (stereo unspecified),maximum recommended daily dose (mmol/kg-bw/day),"TherapeuticCategory: antihypertensive, antianginal",0.0249
OC(CCCN1CCCCC1)(c1ccccc1)c1ccccc1,maximum recommended daily dose (mmol/kg-bw/day),[3],0.0162
CC(C)(C)NCC(O)c1cc(Cl)c(N)c(Cl)c1 (stereo unspecified),maximum recommended daily dose (mmol/kg-bw/day),TherapeuticCategory: antiasthmatic,3.61e-06
C=CCN1CC[C@]23c4c5ccc(O)c4O[C@H]2[C@@H](O)C=C[C@H]3[C@H]1C5,maximum recommended daily dose (mmol/kg-bw/day),TherapeuticCategory: narcotic antagonist,0.00214
CN(C)CC/C=C1\c2ccccc2Sc2ccc(Cl)cc21,maximum recommended daily dose (mmol/kg-bw/day),[5],0.0105
COc1cc(N)c(Cl)cc1C(=O)NC1CCN(CCCOc2ccc(F)cc2)CC1OC (stereo unspecified),maximum recommended daily dose (mmol/kg-bw/day),TherapeuticCategory: peristaltic stimulant,0.00285
NC[C@H](O)c1ccc(O)c(O)c1,maximum recommended daily dose (mmol/kg-bw/day),"TherapeuticCategory: adrenergic, antihypotensive",0.000394
CCCCN(CCCC)CCC(O)c1cc2c(Cl)cc(Cl)cc2c2cc(C(F)(F)F)ccc12 (stereo unspecified),maximum recommended daily dose (mmol/kg-bw/day),TherapeuticCategory: antimalarial,0.05
Nc1ccc(C(=O)O)c(O)c1,maximum recommended daily dose (mmol/kg-bw/day),[4],1.31
CC(CCc1ccc(O)cc1)NCCc1ccc(O)c(O)c1 (stereo unspecified),maximum recommended daily dose (mmol/kg-bw/day),[1],0.000133
O=C1N(Cc2ccccc2)C2C[S+]3CCCC3C2N1Cc1ccccc1 (stereo unspecified),maximum recommended daily dose (mmol/kg-bw/day),[6],0.000112
CCOC(=O)N1CCC(=C2c3ccc(Cl)cc3CCc3cccnc32)CC1,maximum recommended daily dose (mmol/kg-bw/day),[2],0.000436
Nc1nc2c(c(=O)[nH]1)N(C=O)C(CNc1ccc(C(=O)NC(CCC(=O)O)C(=O)O)cc1)CN2 (stereo unspecified),maximum recommended daily dose (mmol/kg-bw/day),"TherapeuticCategory: antidote to folic acid antagonists, antianemic",0.0114
